Measured values taken from patent US10350311B2, “Iohexol powder and method of using the same” (Otsuka Pharmaceutical Co., Ltd., priority 2014, dated 2019).

What was measured:
Format in all cases: physicochemical
[1] = Exposure to air humidity / moisture uptake; settings: exposed to ambient air humidity for 120 hours, SEM
Experimental: Crystallized iohexol samples were also examined by SME analysis for the influence of air humidity (i.e., humidity of ambient/room air). Crystallized iohexol samples were exposed to air humidity for 120 hours.

[2] = Specific surface area by low-temperature nitrogen adsorption (BET); settings: for Specific Area measured [m^2/g]: BET isotherm, nitrogen adsorption; for Specific Area estimated [m^2/g]: calculated from SEM geometry assuming non-porous spheres
Experimental: Specific surface area was measured using a low-temperature nitrogen adsorption apparatus, a Pulse Chemisorb 2700.
The specific surface area data, which were evaluated using a BET isotherm, support the nonporous nature/character of the particles. The measured value of the specific surface area was about 2.8 m^2/g, which is consistent with the calculation of the specific surface area of hypothetical material which consists of non-porous spheres with a radius of 3 μm. Considering the skeletal density of crystallized iohexol (2.097 g/cm3), the calculated specific surface area of this hypothetical material is about 4 m^2/g. All data provided by analyses appear to support the conclusion that the crystallized iohexol solid material contains agglomerates consisting of small nonporous particles and that the total specific area is the sum of the outer surface areas of these particles.
Experimentally obtained values of the specific surface area are very low, which is typical of macroporous to non-porous materials. Experimental specific surface area values for all samples are in good agreement with the estimated values based on SEM image analysis, (calculating the particle surface area based on the geometrical shape of particles, i.e., and assuming that the particles are not porous (confirmed by mercury porosimetry as discussed above). Individual values and comparisons of the amount of nitrogen desorption for each sample are summarized in Table 5.

[3] = Dissolution time in water by Modified United States Pharmacopeia Method 641; settings: Example 2
Experimental: As used herein, the term “Modified United States Pharmacopeia Method 641” denotes a modified form of the Standard United States Pharmacopeia Method 641, where the Modified United States Pharmacopeia Method 641 is carried out as follows: • Place 1.8 g of the particulate iohexol in a meticulously clean, glass-stoppered, 50 mL glass cylinder approximately 1:10 diameter to height in size. • Fill 40 mL of tap water adjusted to 10° C. (±2° C.) into the glass cylinder. • Immediately start shaking the glass cylinder and start recording total time. • Shake the glass cylinder with an up and down movement, keeping the frequency at 12-13 movements per 5 seconds. • After 20 seconds observe for 3 seconds for completeness of dissolution. • Evaluate after 3 seconds, when the bubbles disappear, comparing with pure solvent. • If dissolved completely, record “dissolved in 20 seconds”. • If not dissolved completely, continue shaking for a total time 30 sec • Repeat the dissolution evaluation at 30 seconds, 40 seconds, 1 min., and 1 min. 30 seconds. • Always repeat the dissolution evaluation using the same procedure. • If dissolved completely at time point 1 min 30 sec, record “dissolved in NMT 1 min 30 sec”. • If not dissolved, record “not dissolved in 1 min 30 sec”. 20 oz (600 ml) modified beverage PET bottle for Iohexol Powder for Oral Solution product; 50 ml testing glass cylinder; Tap water. Samples were tested using the Modified USP Method <641> as described herein.

[4] = Skeletal density by helium pycnometer; settings: Table 5, Example 3
Experimental: As used herein, the term “interparticle spacing” denotes the percentage of the “bulk” particle volume which is free space. The interparticle spacing can be calculated from the bulk density and skeletal density. As discussed above, bulk density refers to the density determined by dividing the weight of the sample by its measured volume, for example using the USP <616> method. The skeletal density, sometimes referred to as the “true density,” is determined by dividing the weight of a sample by its “true” volume—i.e., the volume excluding interstitial voids and any open porosity in the sample (e.g., determined by gas displacement techniques). […] The porosity of the iohexol particles was also investigated using mercury intrusion, and the skeletal density was determined by helium pycnometer and physical adsorption of nitrogen.

[5] = Particle size distribution (D10, D50, D90); settings: Table 6, Example 5; listed as crystallized iohexol
Description: As used herein, the “D90” of a particulate material denotes a diameter value for the particles in the material at which about 90% of the particles have a diameter below the diameter value. For example, in a sample with a D90 of 20 μm, 90% of the particles in the sample have a diameter of 20 μm or less. As used herein, the “D50” of a material denotes a diameter value for the particles in the material at which about 50% of the particles have a diameter below the diameter value. For example, in a sample with a D50 of 10 μm, 50% of the particles in the sample have a diameter of 10 μm or less. As used herein, the “D10” of a material denotes a diameter value for the particles in the material at which about 10% of the particles have a diameter below the diameter value. For example, in a sample with a D10 of 5 μm, 10% of the particles in the sample have a diameter of 5 μm or less.

[6] = Table 5, listed as crystallized iohexol

CC(=O)N(CC(O)CO)c1c(I)c(C(=O)NCC(O)CO)c(I)c(C(=O)NCC(O)CO)c1I (centres unmarked) [CRI, iohexol]
Influence of air humidity on the particles [1]: sintering of originally separated particles was observed | Specific Area measured [m^2/g] ([2]; Table 5): 2.8 m^2/g | Specific Area measured [m^2/g] [2, 6]: about 2.8 m^2/g | Specific Area estimated [m^2/g] ([2]; Table 5): 4.0^a m^2/g | Specific Area estimated [m^2/g] [2, 6]: about 4 m^2/g | Relative desorbed amount Ad/Ad(crystallized) ([2]; Table 5, nitrogen desorbed relative to crystallized iohexol): 1 | Specific surface area m^2/g ([2]; Table 6, Example 5, listed as crystallized iohexol): about 4 m^2/g | Dissolution, in words [3]: dissolved rapidly | Skeletal density [4]: 2.097 g/mL | Skeletal density ([4]; listed as crystallized iohexol): 2.097 g/mL | Particle Size distribution (μm) D50 [5]: 10 μm
